From ChEMBL document CHEMBL5291721, “A preclinical secondary pharmacology resource illuminates target-adverse drug reaction associations of marketed drugs” (Nat Commun, 2023) come the findings set out here.

Assay [1] deals with T1, Muscarinic acetylcholine receptor M1 (Homo sapiens, UniProt P11229).
T1 sequence (P11229 whole entry): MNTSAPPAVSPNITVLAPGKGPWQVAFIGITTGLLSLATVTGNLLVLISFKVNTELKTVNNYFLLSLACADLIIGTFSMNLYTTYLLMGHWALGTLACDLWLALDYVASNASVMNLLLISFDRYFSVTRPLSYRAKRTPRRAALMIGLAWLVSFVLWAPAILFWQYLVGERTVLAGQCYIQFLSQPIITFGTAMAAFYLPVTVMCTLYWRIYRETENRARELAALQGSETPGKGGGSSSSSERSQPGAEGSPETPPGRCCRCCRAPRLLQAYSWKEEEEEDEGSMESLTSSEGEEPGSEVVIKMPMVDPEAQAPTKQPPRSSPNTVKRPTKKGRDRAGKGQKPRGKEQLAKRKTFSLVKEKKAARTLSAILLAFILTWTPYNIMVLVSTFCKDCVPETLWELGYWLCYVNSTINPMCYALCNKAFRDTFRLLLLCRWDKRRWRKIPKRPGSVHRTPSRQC
Type of assay: functional.

The target of assay [2] is T2, Alpha-2B adrenergic receptor (Homo sapiens, UniProt P18089).
T2 sequence (P18089 whole entry): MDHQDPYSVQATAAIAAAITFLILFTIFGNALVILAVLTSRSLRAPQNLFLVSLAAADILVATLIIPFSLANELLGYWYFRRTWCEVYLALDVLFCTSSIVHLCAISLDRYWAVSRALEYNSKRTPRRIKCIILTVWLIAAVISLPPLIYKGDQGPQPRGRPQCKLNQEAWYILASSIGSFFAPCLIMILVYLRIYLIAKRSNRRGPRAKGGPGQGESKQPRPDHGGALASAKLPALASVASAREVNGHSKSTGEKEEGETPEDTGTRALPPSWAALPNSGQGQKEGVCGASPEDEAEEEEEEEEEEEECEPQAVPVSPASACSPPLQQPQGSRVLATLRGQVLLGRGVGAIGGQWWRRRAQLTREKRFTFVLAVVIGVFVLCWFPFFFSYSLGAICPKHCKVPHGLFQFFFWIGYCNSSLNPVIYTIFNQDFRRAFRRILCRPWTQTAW

The target of assay [3] is Muscarinic acetylcholine receptor M3 (Homo sapiens, UniProt P20309).
Muscarinic acetylcholine receptor M3, sequence (P20309 whole entry): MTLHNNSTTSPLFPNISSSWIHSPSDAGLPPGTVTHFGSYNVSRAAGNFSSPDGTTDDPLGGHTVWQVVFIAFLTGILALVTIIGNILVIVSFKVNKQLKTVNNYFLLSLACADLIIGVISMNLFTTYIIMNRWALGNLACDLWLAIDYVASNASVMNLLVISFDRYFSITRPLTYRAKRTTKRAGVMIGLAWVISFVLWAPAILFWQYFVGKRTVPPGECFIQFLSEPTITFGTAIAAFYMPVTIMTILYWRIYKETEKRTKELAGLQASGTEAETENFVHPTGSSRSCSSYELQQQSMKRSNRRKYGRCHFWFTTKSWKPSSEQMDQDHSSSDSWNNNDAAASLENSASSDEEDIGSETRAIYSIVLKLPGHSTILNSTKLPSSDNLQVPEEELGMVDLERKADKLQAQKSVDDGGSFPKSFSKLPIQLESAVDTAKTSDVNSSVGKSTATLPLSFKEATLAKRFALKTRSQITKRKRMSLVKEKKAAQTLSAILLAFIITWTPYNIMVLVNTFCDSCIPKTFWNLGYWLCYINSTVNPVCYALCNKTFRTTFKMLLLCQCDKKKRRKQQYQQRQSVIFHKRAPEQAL
Assay [4] addresses T3, Alpha-1A adrenergic receptor (Homo sapiens, UniProt P35348).
T3 sequence (P35348 whole entry): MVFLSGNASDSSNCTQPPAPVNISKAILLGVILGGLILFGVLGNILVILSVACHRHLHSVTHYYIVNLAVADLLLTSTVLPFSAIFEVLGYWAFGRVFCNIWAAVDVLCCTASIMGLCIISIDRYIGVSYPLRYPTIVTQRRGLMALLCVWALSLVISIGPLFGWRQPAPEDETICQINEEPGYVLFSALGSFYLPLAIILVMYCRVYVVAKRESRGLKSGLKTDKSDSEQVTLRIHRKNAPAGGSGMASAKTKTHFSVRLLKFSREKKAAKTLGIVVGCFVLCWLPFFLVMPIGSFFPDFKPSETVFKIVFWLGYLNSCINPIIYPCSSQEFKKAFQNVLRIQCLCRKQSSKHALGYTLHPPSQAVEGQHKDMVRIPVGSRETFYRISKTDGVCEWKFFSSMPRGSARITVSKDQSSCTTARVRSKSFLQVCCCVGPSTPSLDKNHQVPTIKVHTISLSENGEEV

Assay [5] concerns the target Gamma-aminobutyric acid receptor subunit alpha-1/alpha-2/beta-2/gamma-2 (Homo sapiens, UniProt P14867+P18507+P47869+P47870). Type of assay: protein-complex assay.
In assay [6] the target is Voltage-dependent N-type calcium channel subunit alpha-1B (Rattus norvegicus, UniProt Q02294). The format is functional.
Voltage-dependent N-type calcium channel subunit alpha-1B, sequence (Q02294 whole entry): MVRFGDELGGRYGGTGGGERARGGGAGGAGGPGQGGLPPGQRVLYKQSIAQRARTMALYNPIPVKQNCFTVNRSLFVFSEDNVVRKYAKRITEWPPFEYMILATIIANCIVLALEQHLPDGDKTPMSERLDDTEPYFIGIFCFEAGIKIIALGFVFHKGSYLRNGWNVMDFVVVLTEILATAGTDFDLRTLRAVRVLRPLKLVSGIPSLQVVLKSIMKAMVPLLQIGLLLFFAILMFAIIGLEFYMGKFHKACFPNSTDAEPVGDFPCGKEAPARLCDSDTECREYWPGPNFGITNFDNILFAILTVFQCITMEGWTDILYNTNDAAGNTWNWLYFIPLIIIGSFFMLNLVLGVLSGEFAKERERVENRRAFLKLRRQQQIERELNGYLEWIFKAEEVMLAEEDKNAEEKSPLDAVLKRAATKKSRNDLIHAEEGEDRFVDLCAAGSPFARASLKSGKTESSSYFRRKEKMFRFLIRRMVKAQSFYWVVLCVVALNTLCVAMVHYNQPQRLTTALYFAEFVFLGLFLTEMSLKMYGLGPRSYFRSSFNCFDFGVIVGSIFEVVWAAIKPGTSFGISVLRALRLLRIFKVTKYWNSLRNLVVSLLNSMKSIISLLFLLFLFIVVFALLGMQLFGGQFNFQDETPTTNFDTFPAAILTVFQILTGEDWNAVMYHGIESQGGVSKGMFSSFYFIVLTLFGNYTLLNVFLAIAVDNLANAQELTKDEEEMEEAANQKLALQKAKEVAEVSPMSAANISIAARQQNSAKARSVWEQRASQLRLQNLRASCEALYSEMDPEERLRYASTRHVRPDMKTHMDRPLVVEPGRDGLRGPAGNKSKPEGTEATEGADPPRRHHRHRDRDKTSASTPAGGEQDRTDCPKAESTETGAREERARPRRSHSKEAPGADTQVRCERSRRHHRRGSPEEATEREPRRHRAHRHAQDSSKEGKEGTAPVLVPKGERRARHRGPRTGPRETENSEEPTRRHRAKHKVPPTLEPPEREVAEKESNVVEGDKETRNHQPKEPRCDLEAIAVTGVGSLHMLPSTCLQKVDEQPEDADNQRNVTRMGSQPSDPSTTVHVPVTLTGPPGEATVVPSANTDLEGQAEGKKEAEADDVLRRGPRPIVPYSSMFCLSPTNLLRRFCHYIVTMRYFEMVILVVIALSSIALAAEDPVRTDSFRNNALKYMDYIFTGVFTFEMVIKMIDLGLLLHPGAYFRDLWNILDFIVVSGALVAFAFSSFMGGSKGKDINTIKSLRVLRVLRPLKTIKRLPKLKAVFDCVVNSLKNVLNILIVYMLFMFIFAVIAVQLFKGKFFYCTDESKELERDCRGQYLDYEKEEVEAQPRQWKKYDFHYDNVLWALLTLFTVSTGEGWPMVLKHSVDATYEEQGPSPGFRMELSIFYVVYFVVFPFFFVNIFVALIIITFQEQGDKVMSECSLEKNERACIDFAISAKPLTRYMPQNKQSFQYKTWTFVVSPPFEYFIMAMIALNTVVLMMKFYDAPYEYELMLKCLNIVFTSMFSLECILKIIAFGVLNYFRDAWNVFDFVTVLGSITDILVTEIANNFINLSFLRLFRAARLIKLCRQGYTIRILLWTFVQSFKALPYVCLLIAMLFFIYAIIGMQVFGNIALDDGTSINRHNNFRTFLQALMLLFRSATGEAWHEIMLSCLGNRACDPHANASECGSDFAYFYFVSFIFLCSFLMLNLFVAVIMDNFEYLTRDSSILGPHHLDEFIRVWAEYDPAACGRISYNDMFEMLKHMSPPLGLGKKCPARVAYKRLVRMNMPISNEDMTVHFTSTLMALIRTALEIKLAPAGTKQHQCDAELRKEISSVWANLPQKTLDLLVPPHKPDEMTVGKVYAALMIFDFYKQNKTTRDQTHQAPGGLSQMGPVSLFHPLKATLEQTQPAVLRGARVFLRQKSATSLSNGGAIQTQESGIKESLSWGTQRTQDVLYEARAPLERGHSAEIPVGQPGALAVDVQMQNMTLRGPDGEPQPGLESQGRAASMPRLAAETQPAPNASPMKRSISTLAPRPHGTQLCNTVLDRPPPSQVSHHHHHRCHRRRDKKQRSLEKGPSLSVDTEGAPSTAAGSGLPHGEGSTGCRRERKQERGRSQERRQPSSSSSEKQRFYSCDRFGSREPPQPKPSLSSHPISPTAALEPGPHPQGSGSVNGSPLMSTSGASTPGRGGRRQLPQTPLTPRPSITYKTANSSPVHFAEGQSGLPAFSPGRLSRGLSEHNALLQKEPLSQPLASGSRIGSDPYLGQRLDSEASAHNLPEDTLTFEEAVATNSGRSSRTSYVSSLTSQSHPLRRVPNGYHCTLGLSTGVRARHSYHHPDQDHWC
A further assay concerns the target T4, B1 bradykinin receptor (Homo sapiens, UniProt P46663).
T4 sequence (P46663 whole entry): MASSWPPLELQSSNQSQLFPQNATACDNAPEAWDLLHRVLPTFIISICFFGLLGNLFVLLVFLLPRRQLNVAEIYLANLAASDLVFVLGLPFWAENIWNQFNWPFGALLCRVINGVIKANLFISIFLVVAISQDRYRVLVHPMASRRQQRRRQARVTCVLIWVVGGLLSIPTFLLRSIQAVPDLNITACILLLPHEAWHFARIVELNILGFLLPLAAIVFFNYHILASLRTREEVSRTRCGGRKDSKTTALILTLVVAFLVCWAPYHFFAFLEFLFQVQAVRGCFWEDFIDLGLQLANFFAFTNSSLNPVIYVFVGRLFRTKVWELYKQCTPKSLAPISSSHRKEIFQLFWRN

Assay [7] concerns the target T5, Gastric inhibitory polypeptide receptor (Homo sapiens, UniProt P48546).
T5 sequence (P48546 whole entry): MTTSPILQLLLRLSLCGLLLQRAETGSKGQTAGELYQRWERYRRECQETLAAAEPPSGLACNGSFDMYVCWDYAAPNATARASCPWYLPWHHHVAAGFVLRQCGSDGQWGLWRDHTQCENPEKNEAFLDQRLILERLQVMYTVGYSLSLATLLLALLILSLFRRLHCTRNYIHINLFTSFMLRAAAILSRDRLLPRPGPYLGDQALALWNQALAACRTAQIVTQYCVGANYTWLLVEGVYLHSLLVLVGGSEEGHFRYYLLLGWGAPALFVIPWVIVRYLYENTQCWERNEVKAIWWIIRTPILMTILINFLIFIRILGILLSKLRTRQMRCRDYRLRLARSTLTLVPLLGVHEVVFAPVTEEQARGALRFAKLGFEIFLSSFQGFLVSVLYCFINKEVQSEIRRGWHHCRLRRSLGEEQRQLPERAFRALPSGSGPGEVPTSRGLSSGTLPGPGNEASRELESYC

Assay [8] concerns the target 5-hydroxytryptamine receptor 2B (Homo sapiens, UniProt P41595).

SMILES strings stand for the structures.

In general, AC50 refers to the concentration at which the activity in the assay is half-maximal.
Further: assay procedure not described here.

5-hydroxytryptamine receptor 2B, sequence (P41595 whole entry): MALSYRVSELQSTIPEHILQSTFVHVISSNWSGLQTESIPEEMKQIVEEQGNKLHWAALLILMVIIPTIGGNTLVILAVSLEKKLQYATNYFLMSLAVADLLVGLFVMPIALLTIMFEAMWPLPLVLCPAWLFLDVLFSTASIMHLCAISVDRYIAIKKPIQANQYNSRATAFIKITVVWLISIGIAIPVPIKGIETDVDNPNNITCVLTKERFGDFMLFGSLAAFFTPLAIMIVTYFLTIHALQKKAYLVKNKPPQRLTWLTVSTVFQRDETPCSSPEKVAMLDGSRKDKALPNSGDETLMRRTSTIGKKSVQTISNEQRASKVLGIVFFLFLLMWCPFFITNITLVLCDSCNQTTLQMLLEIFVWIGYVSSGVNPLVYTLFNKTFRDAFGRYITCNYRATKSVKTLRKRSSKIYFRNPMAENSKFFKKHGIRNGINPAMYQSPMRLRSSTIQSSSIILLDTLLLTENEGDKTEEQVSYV

On to `COc1ccc(CC2c3cc(OC)c(OC)cc3CC[N+]2(C)CCC(=O)OCCCCCOC(=O)CC[N+]2(C)CCc3cc(OC)c(OC)cc3C2Cc2ccc(OC)c(OC)c2)cc1OC` (stereo not drawn), for which the AC50 in assay [1], in assay [2], in [3] and in [4] was above 30 µM in each case.
In the case of `O=C(O)COc1ccc(C(=O)c2cccs2)c(Cl)c1Cl`, the concentration at half-maximal activity (AC50) in assay [5] was above 10 µM.
On the same count and under the same terms, for `COc1c2ccoc2cc2oc(=O)ccc12` [BERGAPTEN] the value was above 30 µM.
For the molecule `CC(C(=O)O)c1ccc2c(c1)[nH]c1ccc(Cl)cc12` (stereo not drawn) [CARPROFEN], the AC50 was above 10 µM in assay [1], above 10 µM in [2], above 30 µM in assay [3] and above 10 µM in assay [4].
As to `COc1ccccc1OCCNCC(O)COc1cccc2[nH]c3ccccc3c12` (stereo not drawn) [CARVEDILOL], the AC50 in assay [6] is above 10 µM; on B1 bradykinin receptor, above 30 µM; in assay [4] it was 0.0194 µM; in assay [7], above 30 µM; in assay [8], 0.0101 µM.
In the case of `O=C1CCc2cc(OCCCCc3nnnn3C3CCCCC3)ccc2N1` [CILOSTAZOL], the concentration at half-maximal activity (AC50) in assay [4] is above 10 µM.
Take `N[C@@H](CS)C(=O)O` [CYSTEINE]: the AC50 in [5] was above 30 µM.
In the case of `O=C1CN(/N=C/c2ccc(-c3ccc([N+](=O)[O-])cc3)o2)C(O)=N1` [DANTROLENE], the half-maximal activity concentration (AC50) in [1] was above 10 µM; in assay [2], above 10 µM; in assay [3] it was above 30 µM; in [4], above 10 µM.
On to `CC(C)N(CCC(C(N)=O)(c1ccccc1)c1ccccn1)C(C)C` (stereo not drawn) [DISOPYRAMIDE], for which the AC50 was above 10 µM in assay [6]; above 10 µM in [1]; above 10 µM in assay [2]; above 30 µM in assay [3]; above 30 µM at B1 bradykinin receptor; above 10 µM in assay [4]. In assay [7], this molecule showed an AC50 above 30 µM.
Take `C[C@H]1O[C@@H](n2cc(F)c(=O)[nH]c2=O)[C@H](O)[C@@H]1O` [DOXIFLURIDINE]: in assay [5], the AC50 is above 30 µM.
With `C[C@H]1c2cccc(O)c2C(=O)C2=C(O)[C@]3(O)C(=O)C(C(N)=O)=C(O)[C@@H](N(C)C)[C@@H]3[C@@H](O)[C@@H]21` [DOXYCYCLINE], the concentration at half-maximal activity (AC50) in [6] is above 10 µM; at B1 bradykinin receptor, above 30 µM; in assay [4] it was 3.4 µM; in assay [7], above 30 µM; in assay [8], above 10 µM.
On to `C[C@]12C=CC(=O)N[C@@H]1CC[C@@H]1[C@@H]2CC[C@]2(C)[C@@H](C(=O)Nc3cc(C(F)(F)F)ccc3C(F)(F)F)CC[C@@H]12` [DUTASTERIDE], for which the AC50 in [1] was above 10 µM; in assay [2], above 10 µM; in assay [3], above 30 µM; in assay [4] it was above 10 µM.
The molecule `CC(C)(O)CNc1nc(Nc2ccnc(C(F)(F)F)c2)nc(-c2cccc(C(F)(F)F)n2)n1` [ENASIDENIB] displayed an AC50 in assay [5] above 30 µM.
For the molecule `CC(CCc1ccccc1)NCC(O)c1ccc(O)c(C(N)=O)c1` (stereo not drawn) [LABETALOL], in assay [5], the AC50 is above 30 µM.
The molecule `C[N+](C)(C)C[C@H](O)CC(=O)[O-]` [LEVOCARNITINE] returned an AC50 in [5] above 30 µM.
As for `CN1CCCCC1CCN1c2ccccc2Sc2ccc([S+](C)[O-])cc21` (stereo not drawn) [MESORIDAZINE], the AC50 in assay [5] is above 30 µM.
Take `C[C@@H]1C[C@H]2[C@@H]3CCC4=CC(=O)C=C[C@]4(C)[C@@]3(Cl)[C@@H](O)C[C@]2(C)[C@@]1(OC(=O)c1ccco1)C(=O)CCl` [MOMETASONE FUROATE]: in assay [5], the concentration at half-maximal activity (AC50) is above 30 µM.
Still for that read-out and setting: to `Cc1ccccc1C(=O)Nc1ccc(C(=O)N2CCCC(N(C)C)c3ccccc32)cc1` (stereo not drawn) [MOZAVAPTAN] belongs above 30 µM.
Turning to `CC(=O)O[C@]1(C(C)=O)CC[C@H]2[C@@H]3C=C(C)C4=CC(=O)CC[C@@H]4[C@H]3CC[C@@]21C` [NOMEGESTROL ACETATE], the concentration at half-maximal activity (AC50) in assay [1], in assay [2] and in assay [3] was above 30 µM each time.
Molecule `CCOC(=O)C1=C[C@@H](OC(CC)CC)[C@H](NC(C)=O)[C@@H](N)C1` [OSELTAMIVIR] had an AC50 in [5] above 30 µM.
Molecule `Cc1onc(-c2ccccc2)c1C(=O)N[C@@H]1C(=O)N2[C@@H]1SC(C)(C)[C@@H]2C(=O)O` [OXACILLIN] returned an AC50 in assay [5] above 30 µM.
On the same count and under the same terms, for `FC(F)(F)c1ccc(CNc2ccc(Cc3c[nH]c4ncc(Cl)cc34)cn2)cn1` [PEXIDARTINIB] the value was above 3 µM.
`CN1C(C(=O)Nc2ccccn2)=C(O)c2ccccc2S1(=O)=O` [PIROXICAM]: the concentration at half-maximal activity (AC50) in [4] was above 30 µM.
The molecule `[H]/N=C(\N/C(=N/[H])Nc1ccc(Cl)cc1)NC(C)C` [PROGUANIL] came in with an AC50 in [5] above 30 µM.
Regarding `C=C[C@H]1C[N@@]2CC[C@H]1C[C@@H]2[C@@H](O)c1ccnc2ccc(OC)cc12` [QUINIDINE], the half-maximal activity concentration (AC50) was above 10 µM in assay [1], 6.5 µM in assay [2], above 30 µM in [3] and 2 µM in [8].
Turning to `CC(CN1CC(=O)NC(=O)C1)N1CC(=O)NC(=O)C1` (stereo not drawn) [RAZOXANE], in assay [5], the half-maximal activity concentration (AC50) was above 30 µM.
`CC(N)C12CC3CC(CC(C3)C1)C2` (stereo not drawn) [RIMANTADINE]: the half-maximal activity concentration (AC50) in [4] was above 10 µM.
Same read-out and setting: for `O=C1C(CC[S+]([O-])c2ccccc2)C(=O)N(c2ccccc2)N1c1ccccc1` (stereo not drawn) [SULFINPYRAZONE] the value was above 10 µM.
In the case of `CCN(CC)CCNC(=O)c1c(C)[nH]c(/C=C2\C(=O)Nc3ccc(F)cc32)c1C` [SUNITINIB], the half-maximal activity concentration (AC50) amounted to 4.37 µM in assay [2] and 0.158 µM in assay [8].
As to `CC(C)OC(=O)CCC/C=C\C[C@@H]1[C@@H](/C=C/C(F)(F)COc2ccccc2)[C@H](O)C[C@@H]1O` [TAFLUPROST], the half-maximal activity concentration (AC50) in [5] was above 30 µM.
On the same count and under the same terms, to `C[C@]1(Cn2ccnn2)[C@H](C(=O)O)N2C(=O)C[C@H]2S1(=O)=O` [TAZOBACTAM] belongs above 30 µM.
Regarding `CC[C@H]1OC(=O)[C@H](C)C(=O)[C@H](C)[C@@H](O[C@@H]2O[C@H](C)C[C@H](N(C)C)[C@H]2O)[C@](C)(OC)C[C@@H](C)C(=O)[C@H](C)[C@H]2N(CCCCn3cnc(-c4cccnc4)c3)C(=O)O[C@]12C` [TELITHROMYCIN], the AC50 in assay [5] was above 30 µM.
Take `COc1cc2nc(N3CCN(C(=O)C4CCCO4)CC3)nc(N)c2cc1OC` (stereo not drawn) [TERAZOSIN]: the AC50 in [6] is above 10 µM; on B1 bradykinin receptor, above 30 µM; in [7] it was above 30 µM; in assay [8], above 10 µM.
In turn, `CC1=C(/C=C/C(C)=C/C=C/C(C)=C/C(=O)O)C(C)(C)CCC1` [TRETINOIN] returned an AC50 in assay [5] above 3 µM.
As to `CCCC(CCC)C(=O)O` [VALPROIC ACID], the AC50 is above 10 µM in assay [6], above 30 µM at B1 bradykinin receptor, above 30 µM in [7] and above 10 µM in assay [8].
